In the case of `CCCCC(C(=O)NO)S(=O)(=O)N1CC=C(c2ccc(-c3ccccc3)cc2)CC1` (racemic) [Example 13, N-Hydroxy-2(R,S)-[4-(4-phenylphenyl)-1,2,3,6-tetrahydropyridin-1-ylsulphonyl]hexanamide], the melting point (usually the temperature of the solid-liquid transition) was in the range of 186 to 189 °C.
Take `C=C(C)CC(C(=O)NO)S(=O)(=O)N1CC=C(c2ccc(-c3ccccc3)cc2)CC1` (racemic) [Example 14, N-Hydroxy-4-methyl-2(R,S)-[4-(4-phenylphenyl)-1,2,3,6-tetrahydropyridin-1-ylsulphonyl]pent-4-enamide]: the melting point is 170 to 171 °C.
As for `COCCC(C(=O)NO)S(=O)(=O)N1CC=C(c2ccc(-c3ccccc3)c(C)c2)CC1` (racemic) [Example 48, N-Hydroxy-4-methoxy-2(R,S)-[4-(3-methyl-4-phenylphenyl)-1,2,3,6-tetrahydropyridin-1-ylsulphonyl]butanamide], the figure is 135 to 136 °C.
As for `O=C(NO)C(Cc1ccccc1)S(=O)(=O)N1CC=C(c2ccc(-c3ccccc3)cc2)CC1` (racemic) [Example 53, N-Hydroxy-3-phenyl-2(R,S)-[4-(4-phenylphenyl)-1,2,3,6-tetrahydropyridin-1-ylsulphonyl]propanamide], the figure is 202 to 205 °C; as for `O=C(CS(=O)(=O)N1CC=C(c2ccc(-c3ccccc3)cc2)CC1)NO` [Example 1, N-Hydroxy-2-[4-(4-phenylphenyl)-1,2,3,6-tetrahydropyridin-1-ylsulphonyl]acetamide], 216 to 218 °C.
For `O=C(CS(=O)(=O)N1CC=C(c2ccccc2)CC1)NO` [Example 4, N-Hydroxy-2-(4-phenyl-1,2,3,6-tetrahydropyridin-1-ylsulphonyl)acetamide], the melting point was in the range of 175 to 176 °C.
The figure for `O=C(CS(=O)(=O)N1CCC(c2ccccc2)CC1)NO` [Example 5, N-Hydroxy-2-(4-phenylpiperidin-1-ylsulphonyl)acetamide] is 185 to 187 °C.
`O=C(CS(=O)(=O)N1CCC(Cc2ccccc2)CC1)NO` [Example 6, N-Hydroxy-2-(4-benzylpiperidin-1-ylsulphonyl)acetamide] yielded a melting point of 132 to 135 °C.
The figure for `COc1cc(C2=CCN(S(=O)(=O)CC(=O)NO)CC2)ccc1-c1ccccc1` [Example 18, N-Hydroxy-2-[4-(3-methoxy-4-phenylphenyl)-1,2,3,6-tetrahydropyridin-1-ylsulphonyl]acetamide] is 175 to 177 °C; for `COc1cc(C2=CCN(S(=O)(=O)C(C)(C)C(=O)NO)CC2)ccc1-c1ccccc1` [Example 19, N-Hydroxy-2-[4-(3-methoxy-4-phenylphenyl)-1,2,3,6-tetrahydropyridin-1-ylsulphonyl]-2-methylpropanamide] it is 156 to 158 °C.
As for `O=C(CS(=O)(=O)N1CC=C(c2ccc(-c3ccccc3)c(F)c2)CC1)NO` [Example 20, N-Hydroxy-2-[4-(3-fluoro-4-phenylphenyl)-1,2,3,6-tetrahydropyridin-1-ylsulphonyl]acetamide], the figure is 184 to 188 °C; as for `CCOc1cccc(-c2ccc(C3=CCN(S(=O)(=O)CC(=O)NO)CC3)cc2)c1` [Example 21, N-Hydroxy-2-{4-[4-(3-ethoxyphenyl)phenyl]-1,2,3,6-tetrahydropyridin-1-ylsulphonyl}acetamide], 168 to 170 °C.
The figure for `COc1cccc(-c2ccc(C3=CCN(S(=O)(=O)CC(=O)NO)CC3)cc2C)c1` [Example 22, N-Hydroxy-2-{4-[4-(3-methoxyphenyl)-3-methylphenyl]-1,2,3,6-tetrahydropyridin-1-ylsulphonyl}acetamide] is 162 to 165 °C; for `CCc1cccc(-c2ccc(C3=CCN(S(=O)(=O)CC(=O)NO)CC3)cc2C)c1` [Example 23, N-Hydroxy-2-{4-[4-(3-ethylphenyl)-3-methylphenyl]-1,2,3,6-tetrahydropyridin-1-ylsulphonyl}acetamide] it is 151 to 154 °C.
For `COc1cccc(-c2ccc(C3CCN(S(=O)(=O)C(C)(C)C(=O)NO)CC3)cc2OC)c1` [Example 26, N-Hydroxy-2-{4-[3-methoxy-4-(3-methoxyphenyl)phenyl]piperidin-1-ylsulphonyl}-2-methylpropanamide], the melting point lay within 161 to 163 °C.
The figure for `CCOc1cccc(-c2ccc(C3CCN(S(=O)(=O)C(C)(C)C(=O)NO)CC3)cc2OC)c1` [Example 27, N-Hydroxy-2-{4-[4(3-ethoxyphenyl)-3-methoxyphenyl]piperidin-1-ylsulphonyl}-2-methylpropanamide] is 134 to 136 °C; for `CCOc1cccc(-c2ccc(C3=CCN(S(=O)(=O)C(C)(C)C(=O)NO)CC3)cc2C)c1` [Example 30, N-Hydroxy-2-{4-[4-(3-ethoxyphenyl)-3-methylphenyl]-1,2,3,6-tetrahydropyridin-1-ylsulphonyl}2-methylpropanamide] it is 116 to 118 °C; for `CCOc1cccc(-c2ccc(C3CCN(S(=O)(=O)CC(=O)NO)CC3)cc2C)c1` [Example 31, N-Hydroxy-2-{4-[4-(3-ethoxyphenyl)-3-methylphenyl]piperidin-1-ylsulphonyl}acetamide] it is 179 to 180 °C.
As for `CCOc1cccc(-c2ccc(C3CCN(S(=O)(=O)C(C)(C)C(=O)NO)CC3)cc2C)c1` [Example 32, N-Hydroxy-2-{4-[4-(3-ethoxyphenyl)-3-methylphenyl]piperidin-1-ylsulphonyl}-2-methylpropanamide], the figure is 172 to 174 °C.
As for `Cc1cc(C2=CCN(S(=O)(=O)CC(=O)NO)CC2)ccc1-c1cccnc1` [Example 34, N-Hydroxy-2-{4-[3-methyl-4-(pyridin-3-yl)phenyl]-1,2,3,6-tetrahydropyridin-1-ylsulphonyl}acetamide], the figure is 132 to 136 °C; as for `Cc1cc(C2=CCN(S(=O)(=O)CC(=O)NO)CC2)ccc1-c1cccc(CO)c1` [Example 39, N-Hydroxy-2-{4-[4-(3-hydroxymethylphenyl)-3-methylphenyl]-1,2,3,6-tetrahydropyridin-1-ylsulphonyl}acetamide], 174 to 176 °C; as for `COCc1cccc(-c2ccc(C3=CCN(S(=O)(=O)CC(=O)NO)CC3)cc2C)c1` [Example 42, N-Hydroxy-2-{4-[4-(3-methoxymethylphenyl)-3-methylphenyl]-1,2,3,6-tetrahydropyridin-1-ylsulphonyl}acetamide], 151 to 153 °C.
For the molecule `COCCOc1cccc(-c2ccc(C3=CCN(S(=O)(=O)CC(=O)NO)CC3)cc2C)c1` [Example 43, N-Hydroxy-2-{4-[4-(3-[2-methoxyethoxy]phenyl)-3-methylphenyl]-1,2,3,6-tetrahydropyridin-1-ylsulphonyl}acetamide], the melting point was 158 to 160 °C.
As for `Cc1cc(C2=CCN(S(=O)(=O)CC(=O)NO)CC2)ccc1-c1cccc(C(F)(F)F)c1` [Example 45, N-Hydroxy-2-{4[3-methyl-4-(3-trifluoromethylphenyl)phenyl]-1,2,3,6-tetrahydropyridin-1-ylsulphonyl}acetamide], the figure is 168 to 170 °C; as for `O=C(CS(=O)(=O)N1CCC(c2ccc(Oc3ccccc3)cc2)CC1)NO` [Example 46, N-Hydroxy-2-[4-(4-phenoxyphenyl)piperidin-1-ylsulphonyl]acetamide], 176 to 179 °C; as for `COCCOc1cccc(-c2ccc(C3CCN(S(=O)(=O)C(C)(C)C(=O)NO)CC3)cc2C)c1` [Example 47, N-Hydroxy-2-{4-[4-(3-[2-methoxyethoxy]phenyl)-3-methylphenyl]piperidin-1-ylsulphonyl}-2-methylpropanamide], 155 to 156 °C.
On to `Cc1cc(C2=CCN(S(=O)(=O)CC(=O)NO)CC2)ccc1-c1ccc(F)c(Cl)c1` [Example 55, N-Hydroxy-2-{4-[4-(3chloro-4-fluorophenyl)-3-methylphenyl]-1,2,3,6-tetrahydropyridin-1-ylsulphonyl}acetamide], for which the melting point lay in the range of 181 to 183 °C.
As for `Cc1cc(C2=CCN(S(=O)(=O)CC(=O)NO)CC2)ccc1-c1ccccc1F` [Example 57, N-Hydroxy-2-{4-[4-(2-fluorophenyl)-3-methylphenyl]-1,2,3,6-tetrahydropyridin-1-ylsulphonyl}acetamide], the figure is 160 to 163 °C.
In the case of `COc1ccc(-c2ccc(C3=CCN(S(=O)(=O)CC(=O)NO)CC3)cc2C)cc1OC` [Example 58, N-Hydroxy-2-{4-[4-(3,4-dimethoxyphenyl)-3-methylphenyl]-1,2,3,6-tetrahydropyridin-1-ylsulphonyl}acetamide], the melting point is 172 to 174 °C.
On to `Cc1cc(C2=CCN(S(=O)(=O)CC(=O)NO)CC2)ccc1-c1ccc2c(c1)CCC2` [Example 59, N-Hydroxy-2-{4-[4-(indan-5-yl)-3-methylphenyl]-1,2,3,6-tetrahydropyridin-1-ylsulphonyl}acetamide], for which the melting point lay in the range of 149 to 152 °C.
In turn, `Cc1cc(C2=CCN(S(=O)(=O)CC(=O)NO)CC2)ccc1-c1cccc(OC(F)(F)F)c1` [Example 60, N-Hydroxy-2-{4-[3-methyl-4-(3-trifluoromethoxyphenyl)phenyl]-1,2,3,6-tetrahydropyridin-1-ylsulphonyl}acetamide] showed a melting point of 154 °C.
The molecule `Cc1cc(C2CCN(S(=O)(=O)C(C)(C)C(=O)NO)CC2)ccc1-c1ccc2c(c1)OC(C)(C)O2` [Example 62, N-Hydroxy-2-{4-[4-(2,2-dimethyl-1,3-benzodioxol-5-yl)-3-methylphenyl]-piperidin-1-ylsulphonyl}-2-methylpropionamide] returned a melting point of 184 to 186 °C.
The figure for `Cc1cc(C2CCN(S(=O)(=O)C(C)(C)C(=O)NO)CC2)ccc1-c1ccc2c(c1)nc(C)n2C` [Example 63, N-Hydroxy-2-{4-[4-(1,2-dimethylbenzimidazol-5-yl)-3-methylphenyl]piperidin-1-ylsulphonyl]-2-methylpropionamide] is 213 to 215 °C.

The values are drawn from patent publication US6495568B1, “Hydroxamic acid derivatives as matrix metalloprotease (MMP) inhibitors” (Warner-Lambert Company, priority 1997, dated 2002).
